The results in this text go back to US9474790B2, “Stable, protracted GLP-1/glucagon receptor co-agonists for medical use” (Novo Nordisk A/S, priority 2013, dated 2016).

Numbered stars: 1 amine (or outer) side, 2 acyl side, 3 side chain; on linkers, the order of the positions; unused ones are H or OH. Square brackets hold non-standard residues; d marks the D form. Side chains are listed from the residue outwards. Peptide text beside a SMILES is read from it. * marks the point of attachment. C18 diacid = O=C(O)CCCCCCCCCCCCCCCCC(=O)*; γGlu = O=C(O)[C@H](CCC(=O)[*:2])N[*:1]; AEEA = NCCOCCOCC(=O)O; Aib = CC(C)(N)C(=O)O

For orientation: IC50 means the concentration that gives 50% inhibition.

Data set [1] can be described thus: Thioflavin T (ThT) fibrillation assay for physical stability. It counts as physicochemical. To be noted: 250 μM in 10 mM HEPES buffer, pH 7.5, 37° C., shaking 960 rpm. From the text:
The purpose of this assay was to assess the physical stability of the glucagon derivatives of the invention in aqueous solutions.
Low physical stability of a peptide may lead to amyloid fibril formation, which is observed as well-ordered, thread-like macromolecular structures in the sample, which eventually may lead to gel formation. This has traditionally been measured by visual inspection of the sample. However, that kind of measurement is very subjective and depending on the observer. Therefore, the application of a small molecule indicator probe is much more advantageous. Thioflavin T (ThT) is such a probe and has a distinct fluorescence signature when binding to fibrils [Naiki et al; Anal. Biochem. 1989 177 244-249; LeVine; Methods. Enzymol. 1999 309 274-284].
The time course for fibril formation can be described by a sigmoidal curve with the following expression [Nielsen et al; Biochemistry 2001 40 6036-6046]:
Here, as depicted in FIG. 1, F is the ThT fluorescence at the time t. The constant t0 is the time needed to reach 50% of maximum fluorescence. The two important parameters describing fibril formation are the lag-time calculated by t0−2τ and the apparent rate constant kapp 1/τ.
Samples were prepared freshly before each assay. Each sample composition is described in the legends. The pH of the sample was adjusted to the desired value using appropriate amounts of concentrated NaOH and HCl. Thioflavin T was added to the samples from a stock solution in H2O to a final concentration of 1 μM.
Sample aliquots of 200 μl (250 μM of the glucagon derivative/analogue in 10 mM HEPES buffer, pH 7.5) were placed in a 96 well microtiter plate (Packard OptiPlate™-96, white polystyrene). Usually, four or eight replica of each sample (corresponding to one test condition) were placed in one column of wells. The plate was sealed with Scotch Pad (Qiagen).
Incubation at given temperature, shaking and measurement of the ThT fluorescence emission were done in a Fluoroskan Ascent FL fluorescence plate reader (Thermo Labsystems). The temperature was set to 37° C. and the plate was incubated with orbital shaking adjusted to 960 rpm with an amplitude of 1 mm. Fluorescence measurement was done using excitation through a 444 nm filter and measurement of emission through a 485 nm filter.
Each run was initiated by incubating the plate at the assay temperature for 10 min. The plate was measured every 20 minutes for a desired period of time. Between each measurement, the plate was shaken and heated as described.
After completion of the ThT assay the four or eight replica of each sample was pooled and centrifuged at 20000 rpm for 30 minutes at 18° C. The supernatant was filtered through a 0.22 μm filter and an aliquot was transferred to a HPLC vial.
The concentration of peptide in the initial sample and in the filtered supernatant was determined by reverse phase HPLC using an appropriate standard as reference. The percentage fraction the concentration of the filtered sample constituted of the initial sample concentration was reported as the recovery.
The measurement points were saved in Microsoft Excel format for further processing and curve drawing and fitting was performed using GraphPad Prism. The background emission from ThT in the absence of fibrils was negligible. The data points were typically a mean of four or eight samples.
The data set may be fitted to Eq. (1).

For a further data set, the target named is T1, human GLP-1 receptor (Homo sapiens, UniProt P43220).
T1 construct: expressed in transfected cells; host or cells: BHK cells (parent BHKTS13), clone FCW467-12A/KZ10-1, with CRE luciferase
T1 sequence (P43220 24-463): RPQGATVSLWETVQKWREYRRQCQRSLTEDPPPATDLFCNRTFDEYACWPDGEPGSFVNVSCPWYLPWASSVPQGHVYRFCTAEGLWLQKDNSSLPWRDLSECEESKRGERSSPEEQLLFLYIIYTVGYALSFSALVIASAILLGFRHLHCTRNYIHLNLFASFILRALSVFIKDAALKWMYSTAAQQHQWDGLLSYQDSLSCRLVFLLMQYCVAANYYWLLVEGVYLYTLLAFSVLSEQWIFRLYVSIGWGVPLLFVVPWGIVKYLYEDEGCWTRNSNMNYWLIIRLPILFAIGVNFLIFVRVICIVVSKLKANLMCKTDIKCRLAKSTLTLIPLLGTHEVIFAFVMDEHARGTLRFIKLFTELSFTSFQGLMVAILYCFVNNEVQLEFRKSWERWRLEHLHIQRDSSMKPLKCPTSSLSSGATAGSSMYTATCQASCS
The data set is described as follows: GLP-1 receptor binding, 125I-GLP-1 displacement SPA on isolated membranes. As to conditions: displacement of 125I-GLP-1 from membranes; read-out: IC50 GLP-1R. The protocol: The purpose of this assay was to test the in vitro receptor binding activity of the glucagon derivatives of the invention. The receptor binding is a measure of affinity of a compound for the human GLP-1 receptor.
The receptor binding of each compound to the human GLP-1 receptor was measured in a displacement binding assay. In this type of assay a labelled ligand (in this case 125I-GLP-1) is bound to the receptor. Each derivative was added in a series of concentrations to isolated membranes containing the human GLP-1 receptor and displacement of the labelled ligand was monitored. The receptor binding was reported as the concentration at which half of the labelled ligand was displaced from the receptor, the IC50 value.
In order to test the binding of the derivatives to albumin, the assay may be performed in a very low concentration of serum albumin (max. 0.001% final assay concentration) as well as in the presence of a higher concentration of serum albumin (2.0% final assay concentration). An increase of the IC50 value, in the presence of serum albumin indicates an affinity to serum albumin and represents a method to predict a protracted pharmacokinetic profile of the test substance in animal models.
The following chemicals were used in the assay: DMEM w/o phenol red (Gibco 11880-028), Pen/strep (Invitrogen 15140-122), G418 (Invitrogen 10131-027), 1 M Hepes (Gibco 15630), EDTA (Invitrogen 15575-038), PBS (Invitrogen 14190-094), fetal calf serum (Invitrogen 16140-071), EGTA, MgCl2 (Merck 1.05832.1000), Tween 20 (Amresco 0850C335), SPA particles (wheat germ agglutinin (WGA) SPA beads, Perkin Elmer RPNQ0001), [125I]-GLP-1]-(7-36)NH2 (produced in-house), OptiPlate™-96 (Perkin Elmer).
Buffer 1 consisted of 20 mM Na-HEPES plus 10 mM EDTA and pH was adjusted to 7.4.
Buffer 2 consisted of 20 mM Na-HEPES plus 0.1 mM EDTA and pH was adjusted to 7.4.
Assay buffer consisted of 50 mM HEPES supplemented with 5 mM EGTA, 5 mM MgCl2, 0.005% Tween 20 and pH was adjusted to 7.4.
The cells used in this assay (clone FCW467-12A) were BHK cells with BHKTS13 as a parent cell line. The cells express the human GLP-1 receptor.
The cells were grown at 5% CO2 in DMEM, 10% fetal calf serum, 1% Pen/Strep (Penicillin/Streptomycin) and 1.0 mg/ml of the selection marker G418. To make a membrane preparation the cells were grown to approximately 80% confluence. The cells were washed twice in phosphate-buffered saline and harvested. The cells were pelleted using a brief centrifugation and the cell pellet was kept on ice. The cell pellet was homogenised with ULTRA-THURRAX dispersing instrument for 20-30 sec in a suitable amount of buffer 1 (e.g. 10 ml). The homogenate was centrifuged for 15 min. The pellet was re-suspended (homogenised) in 10 ml buffer 2 and centrifuged. This step was repeated once more. The resulting pellet was re-suspended in buffer 2 and the protein concentration was determined. The membranes were aliquoted and stored at minus 80° C.
1. For the receptor binding assay, 50 μl of the assay buffer was added to each well of an assay plate.
2. Test compounds were serially diluted to give the following concentrations: 8×10EE-7 M, 8×10EE-8 M, 8×10EE-9 M, 8×10EE-10 M, 8×10EE-11 M, 8×10EE-12 M and 8×10EE-13 M. Twenty-five μl were added to appropriate wells in the assay plate.
3. Cell membrane aliquots were thawed and diluted to their working concentration. Fifty μl were added to each well in the assay plate.
4. WGA SPA beads were suspended in assay buffer at 20 mg/ml. The suspension was diluted to 10 mg/ml in assay buffer just prior to addition to the assay plate. Fifty μl were added to each well in the assay plate.
5. The incubation was started by adding 25 μl of 480 pM solution of [125I]-GLP-1]-(7-36)NH2 to each well of the assay plate. A 25 μl aliquot was reserved for measuring total counts/well.
6. The assay plate was incubated for 2 h at 30° C.
7. The assay plate was centrifuged for 10 min.
8. The assay plate was read in a Perkin Elmer TopCount NXT instrument. […]
For orientation: Displacement assays read how much labelled ligand stays bound in the presence of the test substance.

Molecule `CC(C)C[C@H](NC(=O)[C@H](Cc1c[nH]c2ccccc12)NC(=O)[C@H](C)NC(=O)[C@@H](NC(=O)[C@H](Cc1ccccc1)NC(=O)[C@H](CCC(=O)O)NC(=O)[C@H](CCCNC(=N)N)NC(=O)[C@H](C)NC(=O)[C@H](C)NC(=O)[C@H](CCCCN)NC(=O)[C@H](CCCCNC(=O)CC[C@H](NC(=O)CC[C@H](NC(=O)COCCOCCNC(=O)COCCOCCNC(=O)CC[C@H](NC(=O)CCCCCCCCCCCCCCCCC(=O)O)C(=O)O)C(=O)O)C(=O)O)NC(=O)[C@H](CC(=O)O)NC(=O)[C@H](CC(C)C)NC(=O)[C@H](Cc1ccc(O)cc1)NC(=O)[C@H](CCCCN)NC(=O)[C@H](CO)NC(=O)[C@H](CC(C)C)NC(=O)[C@H](CC(=O)O)NC(=O)[C@H](CO)NC(=O)[C@@H](NC(=O)[C@H](Cc1ccccc1)NC(=O)[C@@H](NC(=O)CNC(=O)[C@H](CCC(N)=O)NC(=O)C(C)(C)NC(=O)[C@@H](N)Cc1c[nH]cn1)[C@@H](C)O)[C@@H](C)O)C(C)C)C(=O)N[C@@H](CC(C)C)C(=O)N[C@@H](CC(N)=O)C(=O)N[C@H](C(N)=O)[C@@H](C)O` [Example 17, N^ε29-[(4S)-4-carboxy-4-[[(4S)-4-carboxy-4-[[2-[2-[2-[[2-[2-[2-[[(4S)-4-carboxy-4-(17-carboxyheptadecanoylamino)butanoyl]amino]ethoxy]ethoxy]acetyl]amino]ethoxy]ethoxy]acetyl]amino]butanoyl]amino]butanoyl]-[Aib2,Leu10,Lys16,Lys17,Ala18,Arg20,Glu21,Ala24, Leu27]-Glucagon amide] (H-H[Aib]QGTFTSDLSKYLDK([γGlu-γGlu-AEEA-AEEA-γGlu-C18 diacid])KAAREFVAWLLNT-NH2) gave a THT assay Lag time (Ex. 76) in data set [1] of 45 h. Also, at human GLP-1 receptor, the concentration for half-maximal inhibition (IC50) amounted to 0.2 nM.
In the same order, the values of `CC(C)C[C@H](NC(=O)[C@H](Cc1ccc(O)cc1)NC(=O)[C@H](CCCCN)NC(=O)[C@H](CO)NC(=O)[C@H](CC(C)C)NC(=O)[C@H](CC(=O)O)NC(=O)[C@H](CO)NC(=O)[C@@H](NC(=O)[C@H](Cc1ccccc1)NC(=O)[C@@H](NC(=O)CNC(=O)[C@H](CCC(N)=O)NC(=O)C(C)(C)NC(=O)[C@@H](N)Cc1c[nH]cn1)[C@@H](C)O)[C@@H](C)O)C(=O)N[C@@H](CCC(=O)O)C(=O)N[C@@H](CO)C(=O)N[C@@H](CCCCN)C(=O)N[C@@H](C)C(=O)N[C@@H](C)C(=O)N[C@@H](CCCNC(=N)N)C(=O)N[C@@H](CCC(=O)O)C(=O)N[C@@H](Cc1ccccc1)C(=O)N[C@H](C(=O)N[C@@H](CCC(N)=O)C(=O)N[C@@H](Cc1c[nH]c2ccccc12)C(=O)N[C@@H](CC(C)C)C(=O)N[C@@H](CC(C)C)C(=O)N[C@@H](CCCCNC(=O)CC[C@H](NC(=O)CC[C@H](NC(=O)COCCOCCNC(=O)COCCOCCNC(=O)CC[C@H](NC(=O)CCCCCCCCCCCCCCCCC(=O)O)C(=O)O)C(=O)O)C(=O)O)C(=O)N[C@H](C(N)=O)[C@@H](C)O)C(C)C` [Example 24, N^ε28-[(4S)-4-carboxy-4-[[(4S)-4-carboxy-4-[[2-[2-[2-[[2-[2-[2-[[(4S)-4-carboxy-4-(17-carboxyheptadecanoylamino)butanoyl]amino]ethoxy]ethoxy]acetyl]amino]ethoxy]ethoxy]acetyl]amino]butanoyl]amino]butanoyl]-[Aib2,Leu10,Glu15,Lys17,Ala18,Arg20,Glu21,Leu27, Lys28]-Glucagon amide] (H-H[Aib]QGTFTSDLSKYLESKAAREFVQWLLK([γGlu-γGlu-AEEA-AEEA-γGlu-C18 diacid])T-NH2; N-terminus assumed) are 28 h and 0.2 nM.
